In PubChem BioAssay AID504481 (NMMLSC, 2011):
Active and inactive are the calls of the source.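 How the source made its calls: active means fold change below 0.65 in a panel strain, matching the primary screen cutoff; inactive means the rest.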

Key:
Assay in all cases: GFP reporter expression in transducer deletion yeast, mechanism study for yeast TOR pathway modulator project, S. cerevisiae, transducer mutant strains, GFP-tagged proteins (AID 504481);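 further: 1 = DMSO wells as ratio of mean channel GFP fluorescence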
Settings in all cases: S. cerevisiae transducer mutants, GFP-fusion expression, flow cytometry, 3 h
BY4741 = test system: BY4741
YBR084C-A = test system: YBR084C-A
YCL025C = test system: YCL025C
YKL103C = test system: YKL103C
YCR005C = test system: YCR005C
YNL142W = test system: YNL142W

SMILES | fold change (BY4741) | fold change (YBR084C-A) | fold change (YCL025C) | fold change (YKL103C) | fold change (YCR005C) | fold change (YNL142W)
CN1CCN(C(c2ccc(C(F)(F)F)cc2)c2ccc3cccnc3c2O)CC1 (centres undefined) | 0.87 (inactive) | 0.878 (inactive) | 0.972 (inactive) | 1.35 (inactive) | 0.725 (inactive) | 0.91 (inactive)
Cc1ccc(C2=NOC(=O)/C2=C\c2ccc(C)o2)cc1 | 1.8 (inactive) | 0.943 (inactive) | 0.812 (inactive) | 1.2 (inactive) | 1.25 (inactive) | 1.11 (inactive)
CO[C@H]1C[C@@H]2CC[C@@H](C)[C@@](O)(O2)C(=O)C(=O)N2CCCC[C@H]2C(=O)O[C@H]([C@H](C)C[C@@H]2CC[C@@H](O)[C@H](OC)C2)CC(=O)[C@H](C)/C=C(\C)[C@@H](O)[C@@H](OC)C(=O)[C@H](C)C[C@H](C)/C=C/C=C/C=C/1C | 1.12 (inactive) | 0.616 | 2.29 | 2.54 | 3.51 | 12.2
COc1ccc([N+](=O)[O-])c(S(=O)(=O)c2ccccc2)n1 | 0.935 (inactive) | 0.944 (inactive) | 1.08 (inactive) | 1.86 | 0.91 (inactive) | 0.958 (inactive)
O=C(Oc1c(Cl)cc(Cl)c2cccnc12)c1cccc([N+](=O)[O-])c1 | 0.946 (inactive) | 1.18 (inactive) | 1.16 (inactive) | 1.56 | 1.03 (inactive) | 1.08 (inactive)
O=C(Oc1ccnc2cc(Cl)ccc12)N1CCCCCC1 | 0.878 (inactive) | 1.09 (inactive) | 1.78 | 0.97 (inactive) | 0.6 (inactive) | 1.97
O=C(CCc1ccccc1)NNC(=S)NC(=O)c1ccccc1 | 1.64 (inactive) | 1.22 (inactive) | 0.995 (inactive) | 2.56 | 1.32 (inactive) | 1.2 (inactive)
O=[N+]([O-])c1cc(O)c2ncccc2c1 | 0.838 (inactive) | 0.972 (inactive) | 0.835 (inactive) | 1.13 (inactive) | 0.721 (inactive) | 0.761 (inactive)
CCCCC(=O)NNC(=S)NC(=O)c1ccc(C)cc1 | 1.66 (inactive) | 1.27 (inactive) | 1.12 (inactive) | 2.75 | 1.02 (inactive) | 1.25 (inactive)
O=S(=O)(CCN(CCS(=O)(=O)C(F)(F)F)CC1CCCO1)C(F)(F)F (centres undefined) | 0.957 (inactive) | 0.989 (inactive) | 0.948 (inactive) | 1.89 | 1.23 (inactive) | 0.965 (inactive)
COc1ccc(/C=C/C(=O)NC(=S)NNC(=O)c2cnccn2)cc1 | 1.19 (inactive) | 0.936 (inactive) | 1.01 (inactive) | 1.51 | 1.05 (inactive) | 1.27 (inactive)
CC(=O)c1ccc(N2CCN(C(=O)c3ccc(Br)cc3)CC2)c(F)c1 | 1.31 (inactive) | 1.27 (inactive) | 1.22 (inactive) | 1.69 | 1.72 | 1.3 (inactive)
Cc1ccc(S(=O)(=O)c2ccc([N+](=O)[O-])cn2)cc1 | 1.05 (inactive) | 0.894 (inactive) | 1.17 (inactive) | 1.65 | 1.62 | 1.36 (inactive)
Cn1ncc(S(=O)(=O)Cc2ccccc2)c(Cl)c1=O | 1.33 (inactive) | 0.743 (inactive) | 1.13 (inactive) | 1.83 | 1.24 (inactive) | 1.47 (inactive)
O=C(OCn1ncc(Br)c(Br)c1=O)c1c(F)cccc1F | 0.865 (inactive) | 0.936 (inactive) | 0.921 (inactive) | 1.31 (inactive) | 1.48 (inactive) | 0.911 (inactive)
Cc1cc(C(=O)Nc2nc(-c3ccccn3)cs2)ccc1[N+](=O)[O-] | 0.913 (inactive) | 0.967 (inactive) | 0.981 (inactive) | 1.01 (inactive) | 0.918 (inactive) | 0.965 (inactive)
O=[N+]([O-])c1cc(Cl)c2cccnc2c1O | 0.935 (inactive) | 1.05 (inactive) | 1.27 (inactive) | 1.43 (inactive) | 0.922 (inactive) | 1.14 (inactive)

SMILES | fold change (BY4741) | fold change (YBR084C-A) | fold change (YCL025C) | fold change (YKL103C) | fold change (YCR005C) | fold change (YNL142W)
CC(C)(C)C(=O)NC(=S)NNC(=O)c1ccc(-c2ccccc2)cc1 | 1.48 (inactive) | 1.19 (inactive) | 1.32 (inactive) | 2.06 | 1.2 (inactive) | 1.46 (inactive)
CCSc1nnc(NC(=O)c2ccccn2)s1 | 0.946 (inactive) | 0.968 (inactive) | 0.982 (inactive) | 1.13 (inactive) | 0.897 (inactive) | 1.05 (inactive)
CCc1ccc(OCC(=O)NNC(=S)NC(=O)C2CC2)c(Br)c1 | 1.54 (inactive) | 1.09 (inactive) | 1.03 (inactive) | 2.4 | 1.17 (inactive) | 1.15 (inactive)
N/C(Cc1ccc(Cl)cc1)=N\OC(=O)c1cccc2ccccc12 | 1.27 (inactive) | 0.913 (inactive) | 0.919 (inactive) | 1.44 (inactive) | 2.47 | 1.22 (inactive)
O=C1ON=C(c2ccccc2)/C1=C\c1ccco1 | 0.924 (inactive) | 0.921 (inactive) | 1 (inactive) | 1.95 | 1.28 (inactive) | 1.13 (inactive)
c1ccc(-c2cccc(-c3ccccn3)n2)nc1 | 0.815 (inactive) | 0.903 (inactive) | 0.958 (inactive) | 1.41 (inactive) | 0.73 (inactive) | 0.833 (inactive)
C/C(=N\NC(=O)c1ccc(C(C)(C)C)cc1)c1ccccn1 | 0.905 (inactive) | 0.975 (inactive) | 1 (inactive) | 0.921 (inactive) | 1.47 (inactive) | 0.97 (inactive)
O=C(OCC(=O)N1CCN(C(=O)c2ccco2)CC1)c1cc(-c2cccc(Br)c2)nc2ccccc12 | 0.913 (inactive) | 0.779 (inactive) | 1.14 (inactive) | 1.33 (inactive) | 1.29 (inactive) | 1.05 (inactive)
CCOC(=O)c1c(C)oc2c1c(C(c1cccnc1)N1CCOCC1)c(O)c1ccccc12 (centres undefined) | 1.18 (inactive) | 0.759 (inactive) | 0.907 (inactive) | 1.36 (inactive) | 1.27 (inactive) | 1.26 (inactive)
O=C(Oc1c(Cl)cc(Cl)c2cccnc12)c1ccco1 | 1.03 (inactive) | 1.14 (inactive) | 0.784 (inactive) | 1.37 (inactive) | 1.2 (inactive) | 0.881 (inactive)
CC(C)(C)n1nc(-c2ccc(Cl)cc2)c2c(N)ncnc21 | 0.757 (inactive) | 0.489 | 0.899 (inactive) | 1.03 (inactive) | 0.358 (inactive) | 0.924 (inactive)
O=C1ON=C(c2ccccc2)/C1=C/c1ccco1 | 1.32 (inactive) | 1.02 (inactive) | 0.866 (inactive) | 1.37 (inactive) | 1.4 (inactive) | 1.09 (inactive)
O=C(OCn1ncc(Br)c(Br)c1=O)c1ccc(F)cc1 | 0.946 (inactive) | 1.02 (inactive) | 0.996 (inactive) | 1.76 | 1.68 | 1.06 (inactive)
CC(C)(C)C(=O)C(Cl)C(=O)Nc1ccccc1 (centres undefined) | 1 (inactive) | 0.877 (inactive) | 1.11 (inactive) | 2.24 | 1.44 (inactive) | 1.36 (inactive)
CCCOc1ccc(C(=O)NNC(=S)NC(=O)CC)cc1 | 1.77 (inactive) | 1.22 (inactive) | 1.05 (inactive) | 2.42 | 1.21 (inactive) | 1.17 (inactive)
O=[N+]([O-])c1ccc(S(=O)(=O)c2cccc(C(F)(F)F)c2)nc1 | 1.08 (inactive) | 0.793 (inactive) | 0.901 (inactive) | 1.49 (inactive) | 1.32 (inactive) | 1.26 (inactive)
Cc1ccc(C(=O)NNC(=S)NC(=O)COc2ccccc2)cc1 | 1.28 (inactive) | 1.19 (inactive) | 1 (inactive) | 1.93 | 1.34 (inactive) | 1.08 (inactive)
